Measured values from PubChem BioAssay AID463204 (Broad Institute, 2010).
Active and inactive are the calls of the source.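 How the source made its calls: active means AC50 no more than ten times the top concentration tested, that is within one log above it; inconclusive means flat curve fit with activity between 30% and 70%, or invalid poor fit; inactive means AC50 beyond ten times the top tested dose.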

These compounds were tested on S. cerevisiae Mot1-301 ts growth rescue, BacTiter-Glo ATP luminescence (assay: growth rescue of Mot1-301 ts yeast, confirmation, SUMOylation pathway inhibitor project, whole organism, S. cerevisiae, Mot1-301 ts mutant, luminescence, dose retest (AID 463204);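 further: growth at restrictive 38.5 degrees C of Mot1-301 OY566 strain; actives raise luminescence by restoring growth of the ts mutant at high temperature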).

| SMILES | AC50 |
| --- | --- |
| Oc1c(Br)cc(Br)cc1/C=N/N1CCN(Cc2ccccc2)CC1 | 1.78 µM |
| NS(=O)(=O)c1cccc(NC(=O)CSc2nnnn2-c2ccccc2)c1 | > 42 µM (inactive) |
| CC1(C)NC(=O)N(CCCOc2ccccc2Br)C1=O | > 42 µM (inactive) |
| CCCOc1ccc(N2C(=O)CC(N3CCC(C(=O)OCC)CC3)C2=O)cc1 (configuration not stated) | 13.1 µM |
| COc1cccc(CN(C)C(=O)C2CCC(=O)N(Cc3cccc(F)c3)C2)c1 (configuration not stated) | > 42 µM (inactive) |
| CC(=O)Cc1nsc(Nc2cccc(C)c2)n1 | > 42 µM (inactive) |
| O=C(CSCc1ccc(Cl)cc1)N1CCCCC1 | > 42 µM (inactive) |
| NC(=O)CC(NC(=O)Cc1cccc2ccccc12)c1ccc(NCCCN2CCCC2=O)c([N+](=O)[O-])c1 (configuration not stated) | > 42 µM (inactive) |
| CCN(C(=O)Cn1nc(C)c([N+](=O)[O-])c1C)c1c(N)n(Cc2ccccc2)c(=O)[nH]c1=O | > 42 µM (inactive) |
| CC1CCN(CCCCOc2ccc(F)cc2)CC1 | > 42 µM (inactive) |
| CCCCn1c(=O)[nH]c(=O)c2c1nc(COc1ccc(C#N)cc1)n2CCC | > 42 µM (inactive) |
| C/C(=N/Nc1ccc(F)cc1)c1ccc(Cl)s1 | > 42 µM (inactive) |
| CN(C)C(=O)CNC(=O)C1CCCCC1 | > 42 µM (inactive) |
| CCc1cc2c(=O)c(-c3nc4ccccc4n3C)c(C)oc2c(CN2CCOCC2)c1O | > 42 µM (inactive) |
| COCC(=O)Nc1c(C(=O)Nc2ccc3c(c2)OCO3)oc2ccccc12 | > 42 µM (inactive) |
| N#CC1=C(N)OC2=C(C(=O)CCC2)C1C1CC=CCC1 (configuration not stated) | > 42 µM (inactive) |
| FC(F)(F)c1nnc(-c2ccccc2)nc1Oc1ccc(Cl)cc1Cl | > 42 µM (inactive) |
| COc1ccccc1C(=O)OCC(=O)NC(=O)NCc1ccccc1 | > 42 µM (inactive) |
| Cc1ccc(S(=O)(=O)CCC(=O)OCC(=O)N(C)C2CCS(=O)(=O)C2)cc1 (configuration not stated) | > 42 µM (inactive) |
| CN(C)c1ccc(/C=N\Nc2ccccn2)cc1 | > 42 µM (inactive) |
| Cc1c(C(=O)NC(C)c2ccc(-n3ccnc3)cc2)cccc1[N+](=O)[O-] (configuration not stated) | > 42 µM (inactive) |
| Cc1cccc(N=Nc2ccc(N(C)C)cc2)c1 | > 42 µM (inactive) |
| CCCOc1ccc([N+](=O)[O-])c(N)c1 | > 42 µM (inactive) |
| O=C(COc1cccnc1[N+](=O)[O-])Nc1ccc2c(c1)CCC2 | > 21 µM (inactive) |
| COc1ccccc1CNC(=O)CN(c1ccc(C)cc1)S(=O)(=O)c1c(C)n[nH]c1C | > 110 µM (inactive) |
| Cc1sc2nc(CN3CCCC3)nc(NCc3ccncc3)c2c1C | > 42 µM (inactive) |

| SMILES | AC50 |
| --- | --- |
| CCCc1cc(=S)n2c([nH]c3ccccc32)c1C#N | > 42 µM (inactive) |
| O=S(=O)(Cc1ccccc1)N1CCN(c2ccccc2)CC1 | > 42 µM (inactive) |
| O=C(CCc1ccccc1)NNC(=O)c1ccc(Br)cc1 | > 42 µM (inactive) |
| O=C(CSc1nc(-c2ccccc2)nc2ccc(F)cc12)Nc1cccc(C(=O)O)c1 | > 42 µM (inactive) |
| NS(=O)(=O)c1ccc(CCNC(=O)c2ccc([N+](=O)[O-])s2)cc1 | > 42 µM (inactive) |
| O=c1c2c(ncn1Cc1ccccc1)nc1n2CCC1 | > 42 µM (inactive) |
| O=C(CCl)N(Cc1cc(=O)[nH]c2ccccc12)c1ccccc1 | > 42 µM (inactive) |
| CCCCOc1ccc(CSC(=N)N)cc1Cl | > 42 µM (inactive) |
| O=C(O)C1CCCCC1C(=O)Nc1ccc(S(=O)(=O)N2CCCC2)cc1 (configuration not stated) | > 42 µM (inactive) |
| CC(C)c1onc(C(=O)N(C)Cc2ccccc2)c1[N+](=O)[O-] | > 42 µM (inactive) |
| CC/C(=N\NC(=O)c1nnn(-c2nonc2N)c1-c1cccs1)c1ccccc1 | > 42 µM (inactive) |
| O=C(CSc1nnc(-c2ccccc2Cl)o1)Oc1ccc(Br)cc1 | > 42 µM (inactive) |
| COc1ccc2[nH]cc(C(=O)C(=O)N3CCCCC3)c2c1 | > 42 µM (inactive) |
| O=C(O)c1cccc(NC(=O)c2cccc(S(=O)(=O)Nc3cccc([N+](=O)[O-])c3)c2)c1 | > 42 µM (inactive) |
| CCOC(=O)c1ccccc1NC(=O)CSc1ccc(-c2ccccn2)nn1 | > 42 µM (inactive) |
| O=C(c1ccco1)N1CCN(CC(=O)N2c3ccccc3CCc3ccccc32)CC1 | > 42 µM (inactive) |
| Cc1ccc(CNC(=O)CCNS(=O)(=O)c2cccs2)cc1 | > 42 µM (inactive) |
| O=C1C2CCCN2C(=S)N1C1CCCCC1 (configuration not stated) | > 42 µM (inactive) |
| Cc1ccc(S(=O)(=O)N[C@@H](Cc2ccccc2)C(=O)CCl)cc1 | 1.47 µM |
| O=C1CCC(/C=C/c2ccccc2)=NN1Cc1ccc(Cl)c(Cl)c1 | > 42 µM (inactive) |
| O=C(CCN1CCc2ccccc2C1)Nc1ccc2c(c1)OCO2 | > 42 µM (inactive) |
| CCN1CCN(CC(=O)Nc2cccc(C)c2C)C(=O)C1=O | > 42 µM (inactive) |
| CCOC(=O)C1CCN(CC(O)COCc2ccccc2)CC1 (configuration not stated) | > 42 µM (inactive) |
| O=C(NC1CCc2ccccc21)c1cc(COc2ccc(F)cc2F)on1 (configuration not stated) | > 42 µM (inactive) |
| O=c1[nH]cnc2ccc([N+](=O)[O-])cc12 | > 42 µM (inactive) |
| COc1ccc2[nH]c(=O)c(CN(C(=O)c3ccccn3)c3ccccc3)cc2c1 | > 42 µM (inactive) |

| SMILES | AC50 |
| --- | --- |
| Fc1ccc(-c2cc(C(F)(F)F)nc(NCc3cccs3)n2)cc1 | > 42 µM (inactive) |
| Cc1cc(C(=O)COc2cccc3cccnc23)c(C)n1C | > 42 µM (inactive) |
| Oc1c(Cl)cc(Cl)c(Cl)c1Cc1c(O)c(Cl)cc(Cl)c1Cl | 0.84 µM |
| O=c1cc(-c2ccccc2)nc(N2CCN(Cc3ccccc3)CC2)[nH]1 | > 42 µM (inactive) |
| COCCn1c(=O)[nH]c(=O)c2cc(C(=O)c3cc(Cl)ccc3O)cnc21 | > 42 µM (inactive) |
| CN(C)CCNC(=O)c1onc(CSc2ccc(F)c(F)c2)c1C(=O)NCCN(C)C | > 42 µM (inactive) |
| O=C(OCCCN=C1NS(=O)(=O)c2ccccc21)c1cccs1 | > 42 µM (inactive) |
| CC(Oc1ccccc1)C(=O)Nc1ccccc1O (configuration not stated) | > 42 µM (inactive) |
| O=C(Nc1ccc(OC(F)(F)F)cc1)c1ccc2ccccc2n1 | > 42 µM (inactive) |
| Cc1ccccc1Nc1c([N+](=O)[O-])ccc2c1=NC1(CCCCC1)N=2 | > 42 µM (inactive) |
| Cn1cc(C(=O)N2CCCC(Nc3ccc(F)cc3)C2)c2ccccc21 (configuration not stated) | > 42 µM (inactive) |
| CC(C)CCOCc1nc2sc3c(c2c(=O)[nH]1)CCC(C)C3 (configuration not stated) | > 42 µM (inactive) |
| CSc1ccc(CN2CCN(S(=O)(=O)Cc3ccccc3)CC2)cc1 | > 42 µM (inactive) |
| COc1ccc(-c2nnc(-c3cc4c(ccc5ccccc54)oc3=O)o2)cc1 | > 42 µM (inactive) |
| Cn1c(CSc2nc3ccccc3s2)nnc1SCC(=O)NCCN1CCOCC1 | > 42 µM (inactive) |
| Cc1cccc(N2CCN(CCCNC(=O)c3ccc(NC(=O)C4=CSCCO4)cc3)CC2C)c1 (configuration not stated) | > 42 µM (inactive) |
| c1ccc(-c2nc(N3CCOCC3)c3ccccc3n2)nc1 | > 42 µM (inactive) |
| COc1ccc(Nc2cc(NCCCO)c([N+](=O)[O-])c3nonc23)cc1 | > 42 µM (inactive) |
| CC(C)(C)n1cnc2cc(NC(=O)c3ccc(Cl)cc3)ccc21 | > 42 µM (inactive) |
| COc1cc(C(=O)Oc2cccnc2)cc(OC)c1OC | > 42 µM (inactive) |
| Cn1c(O)c(C(c2ccccn2)c2c(O)n(C)c(=S)n(C)c2=O)c(=O)n(C)c1=S | > 42 µM (inactive) |
| CC(C)(C)c1ccc(C(=O)COC(=O)CN2C(=O)NC3(CCCC3)C2=O)cc1 | > 42 µM (inactive) |
| COc1cccc(/C=C2\SC(N3CCC(C)CC3)=NC2=O)c1OC | > 42 µM (inactive) |
| COc1cccc(Nc2nc(C)nc3c2oc2ccccc23)c1 | > 42 µM (inactive) |
| NNC(=O)c1[nH]c2ccccc2c1-c1ccccc1 | > 42 µM (inactive) |
| Oc1ccccc1-c1cc(C(F)(F)C(F)F)[nH]n1 | > 42 µM (inactive) |

| SMILES | AC50 |
| --- | --- |
| O=C(NNC(=O)c1csc(N2CCOCC2)n1)c1ccc(Cl)nc1 | > 42 µM (inactive) |
| CCCCNS(=O)(=O)c1ccc(OC)cc1 | > 42 µM (inactive) |
| Cc1cc(C)n(CCOC(=O)C2C(C=C(Cl)Cl)C2(C)C)n1 (configuration not stated) | > 42 µM (inactive) |
| Cc1c(Cl)cccc1NC(=S)NCCCN(C)C | > 42 µM (inactive) |
| COc1ccc(-c2noc(CSc3nc(-c4ccccc4)cc(=O)[nH]3)n2)cc1OC | > 42 µM (inactive) |
| CC(=O)c1ccc(NC(=O)CSc2nnc(-c3ccco3)o2)cc1 | > 42 µM (inactive) |
| COc1ccc(CN2C(=O)C(=O)N(CC(N)=O)C2=O)cc1 | > 42 µM (inactive) |
| Cc1ccc(NC(=O)Cn2nnc(C(=O)NCc3ccc4c(c3)OCO4)c2N)cc1 | > 42 µM (inactive) |
| CC(C)N(C(=S)Nc1cccc(S(=O)(=O)N(C)C)c1)c1ccccc1 | > 42 µM (inactive) |
| CCn1c(SCC(=O)Nc2ccc(OCc3ccccc3)cc2)nnc1-c1ccco1 | > 42 µM (inactive) |
| CCOC(=O)CSc1cc(C)nc2ccc(OC)cc12 | > 42 µM (inactive) |
| Cc1ccnc(NC(c2cccnc2)c2ccc3cccnc3c2O)c1 (configuration not stated) | > 42 µM (inactive) |
| CC(C)Cc1cc(CN2CCC(CO)(Cc3ccccc3)CC2)[nH]n1 | > 42 µM (inactive) |
| CC(=O)Nc1ccc(S(=O)(=O)Nc2ccc(S(=O)(=O)Nc3ncccn3)cc2)cc1 | > 42 µM (inactive) |
| COc1ccc(NC(=O)CCCc2ccccc2)cc1OC | > 42 µM (inactive) |
| CNC(=O)c1ccccc1NC(=O)c1c(O)c2c([nH]c1=O)CCCC2 | > 42 µM (inactive) |
| CC1(C(=O)Nc2cccc(-n3cnnn3)c2)Cc2ccccc2C(=O)O1 (configuration not stated) | > 42 µM (inactive) |
| COC(=O)c1sccc1NC(=S)N1CCCCC1 | > 42 µM (inactive) |
| O=C(/C=C/N1CCOCC1)c1coc2ccccc12 | > 42 µM (inactive) |
| CN(C)c1ccc(NS(=O)(=O)c2cccc(Cl)c2)cc1 | > 42 µM (inactive) |
| CCOc1ccc(NC(=O)CN(C)C(=O)c2ccc(OCc3ccccc3)c(OC)c2)cc1OCC | > 42 µM (inactive) |
| CN(C)CCCN(Cc1ccccc1)C(=S)Nc1ccc(F)c(Cl)c1 | > 42 µM (inactive) |
| N#Cc1ccc2[nH]c(CO)c(-c3ccccc3)c2c1 | > 42 µM (inactive) |
| CC(Oc1ccccc1[N+](=O)[O-])C(=O)N/N=C/c1ccoc1 (configuration not stated) | > 42 µM (inactive) |
